# Experimental data published in patent US12458641B2, “NK-3 receptor antagonists for therapeutic or cosmetic treatment of excess body fat” (Ogeda SA, priority 2015, dated 2025).
# “And” between values parts separate entries of the source, which are not always exact repeats. Equal entries are not always repeated.
# What was measured:
# [1] = 13-week once-daily oral dosing in cynomolgus monkeys: body weight; format: in vivo, cynomolgus monkeys (Macaca fascicularis); details: female monkeys, 13 weeks, 50 mg/kg (FIG. 3), vehicle group gained about 12%
# Excerpt: The cynomolgus monkey was selected as a relevant species because of the similarity of nonhuman primates (NHP) to humans. The route of administration is oral consistent with the intended route in humans.
# (§1) Sexually-mature (age range of ˜4 years at pre-dose), purpose-bred cynomolgus monkeys (Macaca fascicularis) of Asian origin were used. Sexual maturity was proven by recording of at least two menstrual bleedings (with 20-to-50 days between menstruations) prior to entry into the study.
# NHPs were maintained on a standard lab diet of twice-daily offerings of commercial pellets for primates supplemented with fresh fruit and bread. Dietary and environmental enrichment were also provided through the study duration. Animals were housed in a climate (19-25° C.) and humidity (40-70%) controlled environment with artificial lighting controlled automatically to give a cycle of 12 hours light and 12 hours dark.
# NHPs were divided into three treatment groups: vehicle control (N=6) and compound k-5 Dose Groups of 10 mg/kg (N=4) and 50 mg/kg (N=6), respectively. All NHPs were dosed once daily (morning) by oral gavage over the 13 week treatment period of the study. The dose vehicle was 0.5% methylcellulose (Methocel® from Colorcon) in water. […]
# [2] = 13-week oral dosing in cynomolgus monkeys: whole-body DEXA scan (lean mass, bone mineral density, bone mineral content, fat mass); format: in vivo, cynomolgus monkeys (Macaca fascicularis)
# Protocol: as §1
# (§2) NHPs were divided into three treatment groups: vehicle control (N=6) and compound k-5 Dose Groups of 10 mg/kg (N=4) and 50 mg/kg (N=6), respectively. All NHPs were dosed once daily (morning) by oral gavage over the 13 week treatment period of the study. The dose vehicle was 0.5% methylcellulose (Methocel® from Colorcon) in water.
# All NHPs were subjected to a body weight measurement and DEXA scan (Dual-energy X-ray absorptiometry, Hologic Dexa QDR® 4000) in the pre-dose phase and in the final week (week-13) of the dosing phase. The measurements were made under ketamine anesthesia with dorbene and antisedan.
# The whole body was scanned by DEXA for measurement of lean mass, bone mineral density, bone mineral content and fat mass.
# [3] = system: leptin; assay: 13-week oral dosing in cynomolgus monkeys: serum leptin by ELISA; format: in vivo, cynomolgus monkeys (Macaca fascicularis)
# Protocol: as §2
# All NHPs were subjected to leptin levels measurements. Blood samples were collected at 08 h00 in the morning from overnight-fasted animals on Day-2 prior to dosing (‘pre-dose’), 24 h after the initial dosing, on day 52 of dosing and on day 86 of dosing. Serum samples were derived from these blood samples and stored frozen (−20° C.) until analysis. Leptin concentrations in these serum samples were determined by ELISA assay (Monkey Kit: MyBiosource Cat. N° MBS705354) based upon linear regression analysis against a standard curve.
# [4] = Multiple ascending dose administration in healthy women: body weight; format: in vivo, human; details: for Weight D 42 / Weight Screening: group mean; for Weight D 42: 21 days after last dose; for Weight Screening: before dosing (D-28 to D-2); for Pre vs Post Difference / Pre vs Post Difference (%): screening vs D42
# Protocol: Three Panels A, B, and C, each consisting of 6 healthy women, were randomized to receive different dose level of compound k-5. In those 3 panels, compound k-5 is administered for 21 consecutive days.
# Subjects were residential from the day before first dosing (D-1) until Day 24 (=72 hours after the last dose intake on Day 21). Weekly non-residential visits were organized on Day 28, Day 35 (±1 day) and a follow-up visit on Day 42 (±2 days). Ascending multiple doses of compound k-5 were administered in a once-daily regimen for 21 consecutive days. […] Subjects received the trial medication in a q.d. regimen and after a light breakfast.
# Subjects were recruited on the basis of their medical history and health status. Especially, subjects meeting all of the following criteria were eligible to participate in this study: • 1) Premenopausal females between 18 and 45 years of age inclusive. • 2) Healthy with no clinically significant abnormalities as determined by medical history, physical examination, blood chemistry assessments, hematologic assessments, coagulation and urinalysis, measurement of vital signs, and ECG. Isolated out-of-range values judged by the physician to be of no clinical significance were allowed. […] Weight Measurement
# The weight was measured at screening, which took place between 28 and 2 days before start of dosing (D-28 to D-2), and at the end-of-study visit (D42, i.e. 21 days after cessation of study compound intake).
# A two-tailed T-test for paired samples was used to explore the difference between the screening and post-study values for weight.
# [5] = Body weight and BMI in healthy women with normal corpulence; format: in vivo, human; details: 60 mg for 21 consecutive days, individual subjects
# Protocol: Healthy women with normal corpulence, i.e. having a BMI ranging from 18.5 to 25 kg/m^2, received 60 mg of compound k-5 for 21 consecutive days.
# (§3) The weight was measured at screening which took place between 28 and 2 days before start of dosing (D-28 to D-2), as well as on the follow-up visit planned on D42 (21 days after cessation of study compound intake).
# [6] = Body weight and BMI in overweight women; format: in vivo, human; details: 180 mg for 21 consecutive days, individual subjects
# Protocol: Overweight women, i.e. having a BMI ranging from 25 to 30 kg/m^2, received 180 mg of compound k-5 for 21 consecutive days.
# as §3
# [7] = system: leptin; assay: Plasma leptin level in women (placebo-controlled, ELISA); format: in vivo, human; details: non-obese premenopausal women; 20, 60 and 180 mg once daily, all dose levels; p<0.05 paired t-test (FIG. 4)
# Excerpt: This was a randomized, double-blind, placebo-controlled study. All subjects provided written informed consent prior to screening for study eligibility. Healthy female volunteers aged 20-45 years with a body mass index of 19-30 kg/m^2 were included. Participants needed to be in good physical health including the presence of a regular ovulatory menstrual cycle and the discontinuation of all hormonal contraceptive methods at least 3 months prior to screening. Three panels of 8 non-obese female volunteers (median BMI of each panel: 22.3, 23.4, 25.2 kg/m^2) each were administered capsules of compound k-5 or matching placebo in a 6:2 ratio for 21 days. Subjects received the study medication in a once daily regimen after a light standardized breakfast. The participants in these panels were synchronized for their menstrual cycle; i.e. the initiation of dosing was always on Day3±2 of the menstrual cycle. The dose levels investigated were 20, 60 and 180 mg of compound k-5. Blood samples were collected on the day prior to dosing as well as on Day 21 (the final day of dosing) and plasma fractions were retained and stored frozen (−20° C.) until analysis. Leptin concentrations in these plasma samples were determined by ELISA assay (Human Leptin Kit: R&D Systems, Cat. N° DLP00) based upon linear regression analysis against a standard curve.
# [8] = system: leptin; assay: Plasma leptin level in female rats over the estrous cycle (ELISA, AUC); format: in vivo; details: 10 mg/kg oral BID, p<0.05 paired t-test (FIG. 5)
# Protocol: Daily plasma samples were collected each morning from sexually-mature female rats and analyzed for peak estrogen levels (coincident with proestrus) in order to define the timing of the estrous cycle for individual rats. Next, rats were dosed orally BID (i.e. twice a day) with vehicle (0.5% methylcellulose) over a 4-day ‘baseline’ estrous cycle. Plasma samples were collected daily, each morning, and stored frozen prior to analysis for leptin. […] Plasma samples were collected daily, each morning, and stored frozen prior to analysis for leptin. In a single experiment, plasma samples collected daily during both the ‘baseline’ and ‘treatment’ cycles were analyzed in a common experiment by ELISA assay based upon linear regression analysis against a standard curve. Leptin levels over the 4-day estrous cycle were calculated for individual rats by determination of AUC (area-under-the-curve) using credited data analysis software (GraphPad Prism).
# [9] = rats fed standard chow or high-fat diet (Li et al., 2014); cited from earlier work
compound,measurement,setting,value
"Cc1nsc(-c2nnc3n2CCN(C(=O)c2ccc(F)cc2)[C@@H]3C)n1 [k-5, (R)-(4-fluorophenyl)(8-methyl-3-(3-methyl-1,2,4-thiadiazol-5-yl)-5,6-dihydro-[1,2,4]triazolo[4,3-a]pyrazin-7(8H)-yl)methanone]",change in mean weight over the course of the dosing phase,[1],no significant change
same,"% fat/total mass, treated versus vehicle-treated group","[2]; 50 mg/kg, week 13, N=6/group",statistically-significant difference
same,change in % fat/total mass over the 13-week treatment period (DEXA),"[2]; 10 and 50 mg/kg dose groups, pre-dose vs week 13, increased in the vehicle group (FIG. 1)",no significant change
same,serum leptin levels 24-hours after initial dosing,"[3]; 50 mg/kg oral (FIG. 2), relative to pre-dose and to time-matched vehicle group",significantly increases
same,serum leptin levels over the duration of dosing relative to vehicle-treated group,"[3]; 50 mg/kg oral once daily, up to day 86 (FIG. 2)",persistently higher
same,Weight D 42,[4]; 20 mg once daily for 21 days,58.0 kg
same,Weight Screening,[4]; 20 mg once daily for 21 days,58.2 kg
same,Pre vs Post Difference,[4]; 20 mg once daily for 21 days,-0.13 kg
same,Pre vs Post Difference (%),[4]; 20 mg once daily for 21 days,−0.23%
same,Weight D 42,[4]; 60 mg once daily for 21 days,71.9 kg
same,Weight Screening,[4]; 60 mg once daily for 21 days,73.3 kg
same,Pre vs Post Difference,[4]; 60 mg once daily for 21 days,-1.38 kg
same,Pre vs Post Difference (%),[4]; 60 mg once daily for 21 days,−1.92%
same,Weight D 42,[4]; 180 mg once daily for 21 days,66.9 kg
same,Weight Screening,[4]; 180 mg once daily for 21 days,69.0 kg
same,Pre vs Post Difference,[4]; 180 mg once daily for 21 days,-2.10 kg
same,Pre vs Post Difference (%),[4]; 180 mg once daily for 21 days,−3.14%
same,weight lowering with increasing doses,"[4]; 20, 60, 180 mg once daily for 21 days, healthy women",dose-dependent trend exists towards weight lowering
same,BMI D 42,[5]; D42,21.45 and 22.95 and 21.39
same,BMI screening,[5]; before dosing,22.18 and 23.71 and 21.55
same,Difference,[5]; screening vs D42,-2.2 kg and -2 kg and -0.5 kg
same,Difference (%),[5]; screening vs D42,−3.43% and −3.28% and −0.74%
same,Weight D 42,"[5]; women BMI 18.5 to 25 kg/m^2, D42",64.2 kg and 61 kg and 67.8 kg
same,Weight Screening,"[5]; women BMI 18.5 to 25 kg/m^2, before dosing",66.4 kg and 63 kg and 68.3 kg
same,BMI D 42,[6]; D42,26.79 and 26.17 and 26.21
same,BMI screening,[6]; before dosing,27.94 and 27.81 and 27.15
same,Difference,[6]; screening vs D42,-2.8 kg and -4.2 kg and -3 kg
same,Difference (%),[6]; screening vs D42,−4.29% and −6.27% and −3.57%
same,Weight Screening,"[6]; overweight women BMI 25 to 30 kg/m^2, before dosing",68 kg and 71.2 kg and 87 kg
same,Weight D 42,"[6]; overweight women, D42",65.2 kg and 67 kg and 84 kg
same,leptin levels following 21 days of treatment relative to pre-dose levels,[7],increases serum leptin levels
same,plasma leptin levels over the 4-day estrous cycle (AUC) versus baseline cycle,[8],increases plasma leptin levels
"CC[C@H](NC(=O)c1c(C)c(-c2ccccc2)nc2ccccc12)c1ccccc1 [SB222200, 3-Methyl-2-phenyl-N-[(1S)-1-phenylpropyl]-4-quinolinecarboxamide]",effect on weight,[9],no effect on weight was observed
